Literature values as cited in patent publication US8978468B2, “Nonvisual indication of an unwanted chemical in an ingestible substance” (priority 2009, dated 2015).
Where two headings read alike, the source gives them in different places.

Assays:
[1] = species and route not given
[2] = tested on: mammal (species unspecified); conditions: route not given

2-aminoethanol
Toxic Dose oral-rat LD50 (rat; oral): oral-rat LD50 1720 mg/kg

2-methylpropane-1-thiol
Toxic Dose gavage-rat LD50 (rat; gavage): gavage-rat LD50 7168 mg/kg | Toxic Dose oral-rat LD50 (rat; oral): oral-rat LD50 7168 mg/kg

CC1OCCC1S (stereo not drawn) [2-methyltetrahydrofuran-3-thiol]
Toxic Dose gavage-mouse LD50 (mouse; gavage): gavage-mouse LD50 1860 mg/kg

CC(C)C(C)S (stereo not drawn) [3-methylbutane-2-thiol]
Toxic Dose gavage-rat LD50 [sex: M, F] (rat; gavage, sex: M, F): 540 mg/kg

NCCCC(=O)O [4-aminobutanoic acid]
Toxic Dose oral-mouse LD50 (mouse; oral): oral-mouse LD50 12680 mg/kg | Toxic Dose mouse LD50 (mouse; route not given): mouse LD50 7230 mg/kg

NC1CCCCC1 [cyclohexanamine]
Toxic Dose LD50 [1]: LD50 224 mg/kg | Toxic Dose oral-rat LD50 (rat; in vivo, po): oral-rat LD50 11 mg/kg

SC1CCCC1 [cyclopentanethiol]
Toxic Dose oral-mouse LD50 [sex: M, F (5/group)] (mouse; oral, sex: M, F (5/group)): (5/group)] 2680 mg/kg

butane-1-thiol
Toxic Dose gavage-rat LD50 (rat; gavage): gavage-rat LD50 1500 mg/kg

propan-1-amine
Toxic Dose oral-rat LD50 (rat; oral): oral-rat LD50 370 mg/kg | Toxic Dose mammal (species unspecified) LD50 [2]: LD50 580 mg/kg

propan-2-amine
Toxic Dose oral-rat LD50 (rat; oral): oral-rat LD50 111 mg/kg | Toxic Dose mammal (species unspecified) LD50 [2]: LD50 500 mg/kg
